Values of other authors in US7547776B1, “Process for the production of fludarabine-phosphate lithium, sodium, potassium, calcium and magnesium salts and purification process for the production of fludarabine-phosphate and fludarabine-phosphate with a purity of at least 99.5%” (Bayer Schering Pharma Aktiengesellschaft, priority 1997, dated 2009).

Conditions: in water at approximately 75° C. (recrystallization)

Compound: Nc1nc(F)nc2c1ncn2[C@@H]1O[C@H](COP(=O)(O)O)[C@@H](O)[C@@H]1O [fludarabine-phosphate, 9-β-D-arabinofuranosyl-2-fluoroadenine-5′-O-dihydrogenphosphate]
- thermal stability in water: thermally unstable
